Measurements taken from patent publication US20080171745A1, “METHODS RELATING TO THE TREATMENT OF FIBROSIS” (UNIVERSITY OF WASHINGTON, priority 2005, published 2008).

What was measured:
C57/B16 mice = assay: Bleomycin induced murine pulmonary fibrosis, lung sections stained with trichrome, body weight and survival; type: in vivo; settings: for disease progression, as judged by reduced mortality, histopathology and endogenous gene expression: bleomycin murine model, 5 mg/Kg/day
Protocol: Murine models of bleomycin induced fibrosis have been developed in order to study fibrotic disease progression.
There is an absence of airway epithelium in lower left compared to upper left (see arrow heads) and extensive collagen deposition (lower left). On the sixth day, either saline (upper right) or ICG-001 (5 mgs/Kg/day) was administered for 10 days after which the mice were sacrificed and sectioned. Of interest is the upper right (saline treatment) showing lack of normal airway epithelialization, extensive collagen deposition and intra-airway hypercellularity (fibroblasts and inflammatory influx).

IPF patient fibroblasts = assay: IPF patient fibroblasts, Western blots on whole cell lysates; type: cell-based, human
Protocol: Western blots for S100A4 (also know as FSP-1 or fibroblast specific protein-1) and E-Cadherin were performed on whole cell lysates.

collagen 1A2 = assay: RT-PCR in bleomycin treated mice; type: in vivo; settings: 5 mgs/Kg/day s.c.
S100A4 = assay: RT-PCR in bleomycin treated mice; type: in vivo; settings: 5 mgs/Kg/day s.c.
[1] = bleomycin 5 days, then 5 mgs/Kg/day for 10 days
[2] = RPMI 1640+10% FBS, 2 days, whole cell lysates

Compound: O=C1[C@H](Cc2ccc(O)cc2)N2C(=O)CCN(C(=O)NCc3ccccc3)[C@H]2CN1Cc1cccc2ccccc12 [ICG-001]
- airway histology (epithelialization) (C57/B16 mice; [1]): airway looks essentially normal
- body weight (C57/B16 mice; [1]): regained normal body weight
- collagen levels (trichrome stain) (C57/B16 mice; [1]): normal collagen levels
- survival (C57/B16 mice; bleomycin 5 days, then 5 mgs/Kg/day for 10 days, untreated controls did not survive): survived
- disease progression, as judged by reduced mortality, histopathology and endogenous gene expression (C57/B16 mice): not only halted but reversed disease progression
- disease progression, as judged by reduced mortality, histopathology and endogenous gene expression (C57/B16 mice; listed as ICG-011, 5 mg/kg/day): not only halts but reverses disease progression
- S100A4 and E-cadherin expression at the mRNA level (IPF patient fibroblasts; IPF patient fibroblasts): this is also true at the mRNA level
- E-Cadherin expression, Western blot (IPF patient fibroblasts; [2]): increased E-Cadherin expression
- S100A4 (FSP-1) expression, Western blot (IPF patient fibroblasts; [2]): decreased S100A4 expression
- collagen 1A2 message (RT-PCR) (collagen 1A2): reduced essentially to negative control
- S100A4 message (RT-PCR) (S100A4): reduced essentially to negative control
